Experimental data: patent publication US20210299059A1, “INJECTABLE PHARMACEUTICAL COMPOSITION AND PREPARATION METHOD THEREFOR” (Jiangsu Hengrui Medicine CO., LTD., priority 2018, published 2021)

Legend:
[1] = cited from earlier work
[2] = cited from earlier work; remark: listed apart in the source
[3] = Pharmacokinetics study, subcutaneous apixaban injection (Embodiment 4); format: in vivo, humans; conditions: human, plasma, sc, 2.5 mg, plasma drug concentration of apixaban, 1 mL of 2.5 mg/mL apixaban injection subcutaneously

concentration at 0 h ([3]; Mean of three subjects): 0 µg/mL | concentration at 0.25 h ([3]; Mean of three subjects): 0.00619 µg/mL | concentration at 0.5 h ([3]; Mean of three subjects): 0.0145 µg/mL | concentration at 1 h ([3]; Mean of three subjects): 0.0271 µg/mL | concentration at 2 h ([3]; Mean of three subjects): 0.0406 µg/mL | concentration at 3 h ([3]; Mean of three subjects): 0.0473 µg/mL | concentration at 4 h ([3]; Mean of three subjects): 0.0512 µg/mL | concentration at 5 h ([3]; Mean of three subjects): 0.0434 µg/mL | concentration at 6 h ([3]; Mean of three subjects): 0.0416 µg/mL | concentration at 8 h ([3]; Mean of three subjects): 0.0393 µg/mL | concentration at 10 h ([3]; Mean of three subjects): 0.0322 µg/mL | concentration at 16 h ([3]; Mean of three subjects): 0.0212 µg/mL | concentration at 24 h ([3]; Mean of three subjects): 0.0138 µg/mL | concentration at 0 h ([3]; subject C-01): 0 µg/mL | concentration at 0.25 h ([3]; subject C-01): 0.00808 µg/mL | concentration at 0.5 h ([3]; subject C-01): 0.0182 µg/mL | concentration at 1 h ([3]; subject C-01): 0.0358 µg/mL | concentration at 2 h ([3]; subject C-01): 0.052 µg/mL | concentration at 3 h ([3]; subject C-01): 0.0621 µg/mL | concentration at 4 h ([3]; subject C-01): 0.0688 µg/mL | concentration at 5 h ([3]; subject C-01): 0.0524 µg/mL | concentration at 6 h ([3]; subject C-01): 0.0488 µg/mL | concentration at 8 h ([3]; subject C-01): 0.0467 µg/mL | concentration at 10 h ([3]; subject C-01): 0.0376 µg/mL | concentration at 16 h ([3]; subject C-01): 0.0228 µg/mL | concentration at 24 h ([3]; subject C-01): 0.0143 µg/mL | concentration at 0 h ([3]; subject C-02): 0 µg/mL | concentration at 0.25 h ([3]; subject C-02): 0.00536 µg/mL | concentration at 0.5 h ([3]; subject C-02): 0.0143 µg/mL | concentration at 1 h ([3]; subject C-02): 0.0238 µg/mL | concentration at 2 h ([3]; subject C-02): 0.0379 µg/mL | concentration at 3 h ([3]; subject C-02): 0.0432 µg/mL | concentration at 4 h ([3]; subject C-02): 0.0448 µg/mL | concentration at 5 h ([3]; subject C-02): 0.0381 µg/mL | concentration at 6 h ([3]; subject C-02): 0.0404 µg/mL | concentration at 8 h ([3]; subject C-02): 0.0334 µg/mL | concentration at 10 h ([3]; subject C-02): 0.0289 µg/mL | concentration at 16 h ([3]; subject C-02): 0.0192 µg/mL | concentration at 24 h ([3]; subject C-02): 0.0114 µg/mL | concentration at 0 h ([3]; subject C-03): 0 µg/mL | concentration at 0.25 h ([3]; subject C-03): 0.00513 µg/mL | concentration at 0.5 h ([3]; subject C-03): 0.0109 µg/mL | concentration at 1 h ([3]; subject C-03): 0.0217 µg/mL | concentration at 2 h ([3]; subject C-03): 0.0319 µg/mL | concentration at 3 h ([3]; subject C-03): 0.0366 µg/mL | concentration at 4 h ([3]; subject C-03): 0.04 µg/mL | concentration at 5 h ([3]; subject C-03): 0.0397 µg/mL | concentration at 6 h ([3]; subject C-03): 0.0355 µg/mL | concentration at 8 h ([3]; subject C-03): 0.0376 µg/mL | concentration at 10 h ([3]; subject C-03): 0.0301 µg/mL | concentration at 16 h ([3]; subject C-03): 0.0216 µg/mL | concentration at 24 h ([3]; subject C-03): 0.0158 µg/mL
Compound: COc1ccc(-n2nc(C(N)=O)c3c2C(=O)N(c2ccc(N4CCCCC4=O)cc2)CC3)cc1 [apixaban, Apixaban]
oral bioavailability [1]: approximately 50% | ionization ([2]; at physiological pH (1.2 to 6.8)): not ionized | LogP [2]: 3.53 | solubility ([2]; in the physiological pH range (1.2 to 6.8)): about 0.04 mg/ml
